Experimental data from patent publication US10220024B2, “Method of inhibiting cancer cell, method for detecting cancer cell, and system for detecting cancer cell” (CANON KABUSHIKI KAISHA, priority 2012, dated 2019).
Like-named read-outs stand apart in the source and are kept apart here.

Columns and labels:
K562 ALDH (+) cells = experiment: Cancer stem-cell selective staining, fluorescent microscopy, ALDH (+) cells; format: cell-based, Human
Protocol: (§1) The cells cultured for 24 hours in Experimental Example 16 were subjected to nuclear staining with Hoechest33342 (manufactured by Dojindo Laboratories) and a fluorescent image observed under AXIOVERT200M inverted fluorescent microscope (manufactured by Carl Zeiss) was photographed.

[1] = tested on: Human pancreas cancer cells, KLM-1; experiment: Cancer cell inhibitory (growth suppressive) action against pancreatic cancer cells, CellTiter-Glo viable cell count; format: cell-based; conditions: KLM1, KLM-1, 10 μg/mL, 24 hours
Protocol: Observation on cancer cell inhibitory (growth suppressive) action against pancreatic cancer cells Human pancreas cancer cells, KLM-1, were pre-cultured in RPMI1640 medium containing 10% FBS at 37° C. in a 5% CO2 ambient. Thereafter, 4,000 cells were seeded per well of a 96-well plate and further cultured for 24 hours. Subsequently, Compound (1) was added to the medium so as to obtain a final concentration of 10 μg/mL and cultured at 37° C. for 24 hours in a 5% CO2 ambient. The cultured cells were analyzed for viable cell count according to CellTiter-Glo Luminescent Cell Viability Assay (manufactured by Promega KK.). As a reference, the number of cells cultured in a medium containing a 0.1% dimethylsulfoxide solution (hereinafter, simply referred to as DMSO) in place of a medium containing Compound (1), in the aforementioned operation, was regarded (100%).
Viable cell count was analyzed in the same manner as in Experimental Example 1 except that Compound (1) of Experimental Example 1 was changed to compounds shown in Table 2.
Viable cell count was analyzed in the same manner as in Experimental Example 1 except that Compound (1) was changed to comparative compounds 1 to 4.
Viable cell counts of Experimental Examples 1 to 7 and Comparative Examples 1 to 4 were analyzed to obtain growth rates.
Evaluation of cancer cell inhibition against the pancreatic cancer cells (KLM-1) (growth suppression) was made based on the following criteria. Note that the growth rate in Examples herein is a numerical value of the number of cells obtained after culture relative to the number of cells (regarded as 100) grown in a medium containing 0.1% DMSO. Evaluation of cancer cell inhibition against the pancreatic cancer cells (KLM-1) was made as follows. • A: Cancer cell growth rate is less than 20% (cancer cell inhibitory (growth suppressive) effect is extremely high) • B: Cancer cell growth rate is 20% or more and less than 50% (cancer cell inhibitory (growth suppressive) effect is high) • C: Cancer cell growth rate is 50% or more (cancer cell inhibitory (growth suppressive) effect is low)

[2] = Measurement of fluorescent property of compound (spectrofluorometer); format: physicochemical; conditions: 5 μM DMSO solution
Protocol: The excitation wavelength and fluorescence wavelength of the compound were measured by a FL4500 spectrofluorometric measuring machine manufactured by Hitachi High-Technologies Corporation.

K562 ALDH (−) cells = experiment: Cancer stem-cell selective staining, fluorescent microscopy, ALDH (−) cells; format: cell-based, Human; conditions: cells cultured for 24 hours in Experimental Example 16 (1 μg/mL)
Protocol: as §1

Excitation wavelength λex [2]: 614 nm
Fluorescence wavelength λem [2]: 669 nm
Structure (SMILES): COc1ccc(N2c3ccc(/C=C/C4=[N+](C)c5ccccc5C4(C)C)cc3C3CCCC32)cc1 (stereo not shown) [Compound 11]
Selective staining of cancer stem cells (K562 ALDH (+) cells; ALDH (+) versus ALDH (−) K562 cells): selectively stained
ALDH(+) (ratio of ALDH (+) cells stained) (K562 ALDH (+) cells; cells cultured for 24 hours in Experimental Example 16 (1 μg/mL)): 76.7%
activity at 10 µg/mL ([1]; read-out: Evaluation (cancer cell growth rate)): < 20%
activity at 10 µg/mL ([1]; relative to 0.1% DMSO (100), read-out: Cancer cell growth rate (%)): 2.6%
ALDH(−) (ratio of ALDH (−) cells stained) (K562 ALDH (−) cells): 48.5%
